Where two headings read alike, the source gives them in different places.
What was measured:
[1] = tested on: leukemia (L-SR) cell line; experiment: MTT cytotoxicity assay, L-SR; conditions: Homo sapiens, 48 h, read-out: Cytotoxicity IC50 L-SR
Experimental: (§2) The newly synthesized compounds were evaluated for their in vitro growth inhibition of three human tumor cell lines representing different tumor types, namely, breast adenocarcinoma (MCF-7), liver hepatocellular carcinoma (Hep3B) and leukemia-SR. […] The breast tumor cell line (MCF-7), hepatic tumor cell line (Hep3B) and leukemia-SR cell line were obtained from American Type Culture Collection. The cells were cultured using Dulbecco's modified Eagle's medium (DMEM) (Invitrogen/Life Technologies) supplemented with 10% fetal bovine serum (FBS) (Hyclone), 10 μg mL^−1 of insulin (Sigma), and 1% penicillin–streptomycin. […] For 24 hours before to the MTT experiment, plate cells (densities of 1.2–1.8 × 10 000 cells per well) were layered in a 96-well plate containing 100 μL of the tested chemical per well and 100 μL of full growth media.
(§3) The culture medium was transferred to a centrifuge tube. […] Then 2.0 to 3.0 mL of Trypsin EDTA solution was added to the flask, and the cells were observed using an inverted microscope until the cell layer became dispersed (usually within 5–15 min). After that, 6.0 to 8.0 mL of complete growth medium was added and the cells were aspirated by gently pipetting. The cell suspension was transferred to the centrifuge tube with the medium and cells from step 1 and centrifuged at approximately 125 g for 5–10 min. The supernatant was discarded. The cell pellet was re-suspended in a fresh growth medium. Appropriate aliquots of the cell suspension were added to new culture vessels.
(§4) For the best results, the cells in the log phase of growth should be employed and the final cell number should not exceed 10^6 cells per cm^2. Each test should include a blank containing a complete medium without cells. Cultures from the incubator were transferred into a laminar flow hood or other sterile work area. […] Reconstituted MTT was added in an amount equal to 10% of the culture medium volume. Cultures were returned to the incubator for 2–4 h depending on the cell type and maximum cell density. An incubation period of 2 h is generally adequate but may be lengthened for low cell densities or cells with lower metabolic activity. The incubation times should be consistent when making comparisons. […] Occasionally, especially in dense cultures, pipetting up and down may be required to completely dissolve the MTT formazan crystals. The absorbance was spectrophotometrically measured at a wavelength of 570 nm. The background absorbance of multiwell plates was measured at 690 nm and subtracted from the 450 nm measurement. Tests performed in multiwell plates might be read using an appropriate type of plate reader or the contents of individual wells might be transferred to appropriate size cuvettes for spectrophotometric measurement.

[2] = tested on: human liver cancer (Hep3B) cell line; experiment: MTT cytotoxicity assay, Hep3B; conditions: Homo sapiens, Hep3B
Experimental: as §2, §3, §4

Hep3B cells [3] = experiment: Cell cycle analysis by propidium iodide staining, flow cytometry; format: cell-based, human; conditions: Hep3B cells treated at IC50
Experimental: An apoptosis study was performed at the Cell Culture Unit, VACSERA, Cairo, Egypt. […] The treated cells were washed twice with ice-cold phosphate-buffered saline (PBS), centrifuged and then fixed in ice-cold 70% (v/v) ethanol to prevent clustering of cells during fixation. […] Then 3 mL of PBS was added, and the cells were centrifuged to remove the supernatant. The cells were analyzed by flow cytometry using a FACSort Calibur (Becton Dickinson Biosciences, CA, USA). Finally, the Cell Quest software was used to determine the cell cycle distribution.[65,66]

[4] = tested on: human breast cancer (MCF-7) cell line; experiment: MTT cytotoxicity assay, MCF-7; conditions: Homo sapiens, MCF7, 48 h, read-out: Cytotoxicity IC50 MCF-7
Experimental: as §2, §3, §4

in vitro [5] = conditions: human, THLE2 normal liver cells
Experimental: (§5) The following normal cell lines were selected: normal breast MCF-10a, normal liver THLE2 and normal lymphocyte PCS-800-011. […] Moreover, the toxic effect of representative target compounds was evaluated on normal breast (MCF10a), normal liver (THLE2) and normal lymphocyte (PCS-800-011) cell lines using an MTT assay. […] The cells were cultured using Dulbecco's modified Eagle's medium (DMEM) (Invitrogen/Life Technologies) supplemented with 10% fetal bovine serum (FBS) (Hyclone), 10 μg mL^−1 of insulin (Sigma), and 1% penicillin–streptomycin. All chemicals and reagents were purchased from Sigma-Aldrich or Invitrogen. For 24 hours before to the MTT experiment, plate cells (densities of 1.2–1.8 × 10 000 cells per well) were layered in a 96-well plate containing 100 μL of the tested chemical per well and 100 μL of full growth media.
as §3, §4

active caspase-3 = experiment: Caspase-3 enzyme assay (ELISA) in Hep3B; format: cell-based, human; conditions: Hep3B cells
Experimental: Caspases are crucial mediators of apoptosis. Among them, caspase-3 is considered as a key effector caspase in inducing cell apoptosis and serves as a marker of programmed cell death.[58] Compounds 3c and 5 were tested for their effect on caspase-3 levels in the most sensitive liver cancer cell line Hep3B.
Caspase-3 is one of the crucial mediators of programmed cell death (apoptosis) as it is essential for the formation of apoptotic bodies.[67–70] Active caspase-3 level was measured in pg ml^−1 protein using an Invitrogen ELISA kit (catalog KHO1091). The following procedures were performed. First, 100 μL of the standard diluent buffer was added to the zero standard wells. Then, 100 μL of standards and controls or diluted samples were added to the appropriate microtitre wells. Cover wells were covered and incubated for 2 h at room temperature. The solution was decanted from wells. Then 100 μL of active caspase-3 detection antibody solution was pipetted into each well. The plate was covered and incubated for 1 h at room temperature. After that, 100 μL of Anti-Rabbit IgG HP working solution was added to each well. The wells were covered with a plate cover and incubated for 30 min at room temperature. Then, 100 μL of stabilized chromogen was added to each well. The liquid in the wells will begin to turn blue, and the wells were incubated for 30 min at room temperature. A stop solution was added to each well. The solution in the wells should change from blue to yellow. The plate was read within 2 h after adding the stop solution. Curve fitting software was used to generate the standard curve.

[6] = biological target: T1, human DNA topoisomerase II beta (Topo2β) (Homo sapiens, UniProt Q02880); experiment: Topo2β polymerase inhibition assay (ELISA), Hep3B; format: cell-based; design: concentration or dose not given beside the values; conditions: against Hep3B cell line
Experimental: (§1) This assay was employed to predict the inhibitory effects of novel compounds on Topo2β. […] The melting points were determined using a Stuart apparatus, and the values given are uncorrected. IR spectra were recorded using a Shimadzu IR 4000s spectrophotometer (KBr, cm^−1) at the College of Pharmaceutical Sciences and Drug Manufacturing, Misr University for Science and Technology, Egypt. ^1H NMR spectra were recorded using a Bruker 400 MHz (Bruker Corp., Billerica, MA, USA) spectrophotometer, Faculty of Pharmacy, Cairo University, Cairo, Egypt and the Centre of Drug Discovery Research & Development, Faculty of Pharmacy, Ain shams University, and a Jeol 500 MHz spectrophotometer at the National Research Center. Chemical shifts were recorded in ppm on a δ scale, coupling constants (J) were given in Hz and peak multiplicities are designed as follows: s, singlet; d, doublet; t, triplet; m, multiplet. ^13C NMR spectra were recorded using a Bruker 100 MHz spectrophotometer, Faculty of Pharmacy, Cairo University and the Centre of Drug Discovery Research & Development, Faculty of Pharmacy, Ain shams University, and a Jeol 500 MHz spectrophotometer at the National Research Center. Chemical shifts were recorded in ppm on a δ scale. Microanalyses for C, H, and N were carried out at the Regional Center for Mycology and Biotechnology, Faculty of Pharmacy, Al-Azhar University. C, H, and N analysis values were accepted within the range of ± 0.4 of the calculated percentages. […] The used eluting system was methanol : hexane with a ratio of 9.5/0.5 respectively. Scientific microwave MAS-II was used under 300 W microwave irradiation, operating at 80 °C. The evaluation of the cytotoxic activity was performed at VACSERA, Giza, Egypt, using MCF-7, Hep3B and leukemia SR cell lines. Enzyme assay, cell cycle analysis, apoptosis and caspase-3 assay were carried out at VACSERA, Giza, Egypt using an SEB870Hu 96 Tests Enzyme-linked Immunosorbent Assay Kit for Topoisomerase II Beta.
This assay employs a quantitative sandwich enzyme immunoassay technique. […] Antibody specific for Topo2β was pre-coated onto a microplate. Standards and samples were pipetted into the wells and any Topo2β present was bound by the immobilized antibody. After removing any unbound substances, a biotin-conjugated antibody specific for Topo2β was added to the wells. After washing, avidin-conjugated Horseradish Peroxidase (HP) was added to the wells. Following washing to remove any unbound avidin–enzyme reagent, a substrate solution was added to the wells and color develops in proportion to the amount of Topo2β bound in the initial step. The color development was stopped, and the intensity of the color was measured. […] The sensitivity of this assay or lower limit of detection (LLD) is defined as the lowest protein concentration that could be differentiated from zero. The mean OD value of 20 replicates of the zero standard was determined and added to their three standard deviations.[64]

Hep3B cells [7] = experiment: Annexin V-FITC/propidium iodide apoptosis assay; conditions: for Total %: apoptosis and necrosis total; for Total % / Early apoptosis % / Late apoptosis % / Necrosis %: treated at IC50; for percentage of apoptotic cells (summation of Q2 and Q3): early plus late apoptosis
Experimental: An Annexin-V-FITC apoptosis assay was used to determine apoptosis and necrosis. The cells were incubated with Annexin-V-FITC, centrifuged and then resuspended in 500 μL of 1× binding buffer. Then 5 μL of Annexin-V-FITC and 5 μL of propidium iodide (PI) were added, and the cells were then trypsinized and washed once with serum-containing media before incubation with Annexin-V-FITC at room temperature for 5 min in the dark. A FACSort Calibur flow cytometer (Becton Dickinson Biosciences) was used to analyze apoptosis.[56,57]

[8] = biological target: T1, human DNA topoisomerase II beta (Topo2β); experiment: Topo2β polymerase inhibition assay (ELISA), L-SR; format: cell-based; design: endogenous in cells; host or cells: MCF-7 (A4), Hep3B (A5), L-SR (A6) human cancer cell lines; conditions: against L-SR cell line
Experimental: as §1
This assay employs a quantitative sandwich enzyme immunoassay technique. […] Antibody specific for Topo2β was pre-coated onto a microplate. Standards and samples were pipetted into the wells and any Topo2β present was bound by the immobilized antibody. After removing any unbound substances, a biotin-conjugated antibody specific for Topo2β was added to the wells. After washing, avidin-conjugated Horseradish Peroxidase (HP) was added to the wells. […] The color development was stopped, and the intensity of the color was measured. […] The mean OD value of 20 replicates of the zero standard was determined and added to their three standard deviations.[64]

in vitro [9] = conditions: human, MCF-10a normal breast cells
Experimental: as §5, §3
For the best results, the cells in the log phase of growth should be employed and the final cell number should not exceed 10^6 cells per cm^2. […] The absorbance was spectrophotometrically measured at a wavelength of 570 nm. The background absorbance of multiwell plates was measured at 690 nm and subtracted from the 450 nm measurement. Tests performed in multiwell plates might be read using an appropriate type of plate reader or the contents of individual wells might be transferred to appropriate size cuvettes for spectrophotometric measurement.

[10] = biological target: T1, human DNA topoisomerase II beta (Topo2β); experiment: Topo2β polymerase inhibition assay (ELISA), MCF-7; format: cell-based; conditions: against MCF-7 cell line
Experimental: as §1, with “Enzyme assay, cell cycle analysis, apoptosis and caspase-3 assay were carried out at VACSERA, Giza, Egypt using an SEB870Hu 96 Tests Enzyme-linked Immunosorbent Assay Kit for Topoisomerase II Beta.” left out
This assay employs a quantitative sandwich enzyme immunoassay technique. […] The color development was stopped, and the intensity of the color was measured. […] The mean OD value of 20 replicates of the zero standard was determined and added to their three standard deviations.[64]

in vitro [11] = conditions: human, PCS-800-011 normal lymphocyte cells
Experimental: as §5, §3, §4

[12] = 48 h, read-out: Cytotoxicity IC50 Hep3B

T1 sequence (Q02880 whole entry): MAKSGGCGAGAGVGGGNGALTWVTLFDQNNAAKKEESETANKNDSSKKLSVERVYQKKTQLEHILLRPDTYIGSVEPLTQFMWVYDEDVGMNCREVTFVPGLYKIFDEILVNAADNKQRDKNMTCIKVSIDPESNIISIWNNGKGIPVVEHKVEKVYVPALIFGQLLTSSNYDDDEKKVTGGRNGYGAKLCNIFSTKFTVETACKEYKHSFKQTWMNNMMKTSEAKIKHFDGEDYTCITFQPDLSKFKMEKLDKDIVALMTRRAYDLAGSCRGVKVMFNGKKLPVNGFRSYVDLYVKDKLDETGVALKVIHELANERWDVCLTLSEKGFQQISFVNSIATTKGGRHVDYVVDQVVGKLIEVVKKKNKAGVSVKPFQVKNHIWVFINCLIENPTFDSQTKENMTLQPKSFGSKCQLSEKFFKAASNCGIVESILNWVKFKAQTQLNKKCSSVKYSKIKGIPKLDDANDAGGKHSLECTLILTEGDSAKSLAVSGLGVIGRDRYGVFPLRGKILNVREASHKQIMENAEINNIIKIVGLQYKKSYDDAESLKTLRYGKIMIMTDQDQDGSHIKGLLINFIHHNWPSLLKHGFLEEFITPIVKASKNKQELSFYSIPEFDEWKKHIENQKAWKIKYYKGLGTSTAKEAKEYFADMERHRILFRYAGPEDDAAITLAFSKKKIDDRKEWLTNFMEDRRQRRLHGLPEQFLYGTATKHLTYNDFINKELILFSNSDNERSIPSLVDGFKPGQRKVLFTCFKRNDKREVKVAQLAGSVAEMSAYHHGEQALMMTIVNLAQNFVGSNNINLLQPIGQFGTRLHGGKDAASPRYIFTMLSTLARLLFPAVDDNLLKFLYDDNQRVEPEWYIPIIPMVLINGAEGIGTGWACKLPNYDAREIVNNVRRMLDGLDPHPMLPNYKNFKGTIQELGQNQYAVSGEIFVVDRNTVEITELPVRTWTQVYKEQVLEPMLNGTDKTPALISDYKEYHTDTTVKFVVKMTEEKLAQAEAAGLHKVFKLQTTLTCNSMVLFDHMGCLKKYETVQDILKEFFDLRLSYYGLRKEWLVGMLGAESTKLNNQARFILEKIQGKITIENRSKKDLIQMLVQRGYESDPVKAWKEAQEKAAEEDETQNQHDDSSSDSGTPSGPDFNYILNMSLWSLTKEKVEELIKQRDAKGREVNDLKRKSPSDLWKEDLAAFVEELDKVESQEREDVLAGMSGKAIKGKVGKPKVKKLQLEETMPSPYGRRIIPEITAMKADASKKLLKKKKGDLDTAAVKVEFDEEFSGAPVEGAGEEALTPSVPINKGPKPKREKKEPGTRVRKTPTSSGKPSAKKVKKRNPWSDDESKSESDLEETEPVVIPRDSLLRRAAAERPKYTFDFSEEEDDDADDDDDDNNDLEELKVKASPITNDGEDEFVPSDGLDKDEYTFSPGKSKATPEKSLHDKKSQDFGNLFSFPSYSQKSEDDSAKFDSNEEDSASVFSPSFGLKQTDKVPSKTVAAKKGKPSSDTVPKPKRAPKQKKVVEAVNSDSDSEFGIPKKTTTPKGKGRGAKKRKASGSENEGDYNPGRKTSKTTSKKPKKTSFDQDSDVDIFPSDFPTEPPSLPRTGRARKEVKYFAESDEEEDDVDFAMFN

Row | Compound | IC50 [1] [µM] | IC50 [2] [µM] | IC50 [2, 12] [µM] | DNA content %G0–G1 (Hep3B cells [3]) [%] | DNA content %G2/M (Hep3B cells [3]) [%] | DNA content %S (Hep3B cells [3]) [%] | IC50 [4] [µM] | IC50 at 48 h (in vitro [5]) [µM] | Caspase-3 Conc. (active caspase-3) [pg/mL] | Topo2β% inhibition [6] [%] | Total % (Hep3B cells [7]) [%] | percentage of apoptotic cells (summation of Q2 and Q3) (Hep3B cells [7]) [%] | Early apoptosis % (Hep3B cells [7]) [%] | Late apoptosis % (Hep3B cells [7]) [%] | Necrosis % (Hep3B cells [7]) [%] | Topo2β% inhibition [8] [%] | IC50 at 48 h (in vitro [9]) [µM] | Topo2β% inhibition [10] [%] | IC50 at 48 h (in vitro [11]) [µM] | melting point [°C]
1 | COc1ccc(C=NNC(=O)c2cn3c4c(c(N5CCN(C)CC5)c(F)cc4c2=O)OCC3C)cc1 (stereo not drawn) [Compound 3c, 9-Fluoro-3-methyl-10-(4-methylpiperazin-1-yl)-N′-(4-methoxybenzylidene)-7-oxo-2,3-dihydro-7H-[1,4]oxazino[2,3,4-ij]quinoline-6-carbohydrazide] | 22.4 ± 1.34 | 0.43 | 0.43 ± 0.01 | 43.53 | 18.91 | 37.56 | 40.6 ± 3.17 | 20 ± 0.76 | 407.3 ± 7.55 | 81.33 | 32.91 | 25.87 | 11.54 | 14.33 | 7.04 |  |  |  |  | 
2 | CCOC(=O)CC(C)=NNC(=O)c1cn2c3c(c(N4CCN(C)CC4)c(F)cc3c1=O)OCC2C (stereo not drawn) [Compound 5, Ethyl 3-(2-(9-fluoro-3-methyl-10-(4-methylpiperazin-1-yl)-7-oxo-2,3-dihydro-7H-[1,4]oxazino[2,3,4-ij]quinoline-6-carbonyl)hydrazineylidene)butanoate] | 0.96 ± 0.06 |  | 3.77 ± 0.17 | 38.49 | 22.42 | 39.09 | 1.4 ± 0.06 | 40.6 ± 2.28 | 375.8 ± 16.6 | 83.73 | 38.11 | 32.21 | 9.54 | 22.67 | 5.9 | 80.29 | 30.4 ± 1.66 | 78.30 | 19.7 ± 1.03 | 
3 | CC1COc2c(N3CCN(C)CC3)c(F)cc3c(=O)c(C(=O)N4NC(=O)CC4=N)cn1c23 (stereo not drawn) [Compound 7, 9-Fluoro-6-((5-imino-3-oxopyrazolidine-1-yl)carbonyl)-3-methyl-10-(4-methylpiperazin-1-yl)-2,3-dihydro-7H-[1,4]oxazino[2,3,4-ij]quinolin-7-one] | 12.1 ± 0.73 |  | 6.99 ± 0.32 |  |  |  | 4.37 ± 0.2 | 68.5 ± 3.86 |  | 71.92 |  |  |  |  |  |  |  |  | 32.1 ± 1.68 | 101 to 103
4 | CC1COc2c(N3CCN(C)CC3)c(F)cc3c(=O)c(C(=O)N4CCCCC4)cn1c23 (stereo not drawn) [Compound 13a, 9-Fluoro-3-methyl-10-(4-methylpiperazin-1-yl)-6-((piperidin-1-yl)carbonyl)-2,3-dihydro-7H-[1,4]oxazino[2,3,4-ij]quinolin-7-one] | 3.12 ± 0.19 |  | 3.46 ± 0.16 |  |  |  | 12.1 ± 0.56 | 29.9 ± 1.68 |  | 68.77 |  |  |  |  |  | 69.38 |  |  |  | 238 to 240
5 | COc1cc([C@@H]2c3cc4c(cc3[C@@H](O[C@@H]3O[C@@H]5CO[C@@H](C)O[C@H]5[C@H](O)[C@H]3O)[C@H]3COC(=O)[C@H]23)OCO4)cc(OC)c1O [Etoposide, reference compound] | 3.38 ± 0.13 | 21.9 | 21.9 ± 0.72 | 36.14 | 37.62 | 26.24 | 16.3 ± 0.72 | 35.2 ± 2.19 | 460 ± 11.3 | 73.22 | 27.09 |  | 3.41 | 9.37 | 14.31 | 69.85 | 23.9 ± 1.55 | 63.18 | 37.1 ± 1.79 | 
6 | C[C@H]1COc2c(N3CCN(C)CC3)c(F)cc3c(=O)c(C(=O)O)cn1c23 [Levofloxacin, reference compound] | 7.38 ± 0.31 | 8.94 | 8.94 ± 0.29 | 29.66 | 39.87 | 30.47 | 2.79 ± 0.16 | 29.9 ± 1.52 | 391.7 ± 5.86 | 73.59 | 34.62 | 23.60 | 0.95 | 22.65 | 11.02 | 70.40 | 22.2 ± 1.41 | 59.80 | 20.2 ± 0.85 | 

Source: article PMC11369887 (RSC Advances, 2024)
